Where two headings read alike, the source gives them in different places.
What was measured:
[1] = design: species or system cynomolgus monkeys; conditions: cynomolgus monkey, in vivo
Procedure: AR177 plasma HPLC analysis. Blood was taken for plasma analysis of AR177 just prior to, and at 5, 30 and 240 minutes following administration of doses 1 and 12. The plasma fraction was obtained by low speed centrifugation of blood, and stored at −20° C. until analyzed for the AR177 concentration. Plasma AR177 concentrations were assayed using an anion-exchange HPLC method on a Waters HPLC system with a 626 pump, 996 photodiode array detector, 717 autosampler and Millennium system software controlled by an NEC Image 466 computer. Buffer A was 0.1 M Tris base, 20% methanol, pH 12, and Buffer B was 0.1 M Tris base, 1.0 M NaBr, pH12. anion-exchange column tGen-Pak Fax column) was equilibrated at 80% buffer A/20% buffer B for 30 minutes before each HPLC run. Fifty microliters of plasma were analyzed per run. The elusion conditions were: a) five-minute isocratic run at 80% A/20% B, during which the majority of the plasma proteins eluted, b) 30-minute linear gradient to 30% A/70% B during which the AR177 eluted, c) five-minute isocratic run at 30% A/70% B. d) one minute linear gradient to 100% B. e) two- minute run at 100% B for initial column cleanup, and fl two-minute linear gradient to 70% A/30% B for the initial step in the clean-up method for HPLC column clean-up. […]

Vero = assay type: cell-based
Procedure: (§1) Cytotoxicity Analysis. The cytotoxicity of T30177 was assayed as described above. […] The degree of cell proliferation was determined according to the manufacturer's instructions.
(§2) Cytotoxicity Assays. The cytotoxicity of T30177 was determined using several different cell lines and primary human cells as described above. The cytotoxicity profile obtained for log phase growing cells was variable depending upon the cell line used, while the slower growing PBMCs, PBLs, and macrophages all tolerated the compound at concentrations exceeding 100 μM as monitored using the trypan blue exclusion, [^3H]thymidine uptake, or [^3H]leucine uptake techniques.

NIH3T3 = assay type: cell-based
Procedure: as §1, §2

[2] = design: species or system HIV-positive human patients; conditions: human, in vivo
Procedure: Four HIV-infected patients/group were dosed with AR177 at 0.75 mg/kg and […], and two HIV-infected patients were dosed so far with AR177 at 3.0 mg/kg by intravenous infusion over two hours.
Blood was collected in EDTAp coated tubes at 0.25, 05, 1, 2, 2.05, 3, 3.5, 4, 6, 8, 11, 14, 26, 48, 98, and 122 hours following initiation of drug administration. Plasma was obtained by low speed centrifugation of the blood, and was stored frozen until analyzed by HPLC for AR177 concentration. The concentration of AR177 was determined in patient plasma using a validated anion-exchange HPLC method at the Division of Clinical Pharmacy of the University of California, San Francisco. This method has a limit of quantitation of 15 ng/mL in human plasma.
Pharmacokinetic parameters were calculated using PKAnalyst software (MicroMath, Salt Lake City, Utah). The pharmacokinetic data best fit a two compartment model for all of the patients. The alpha and beta half-lives were almost identical in each of the patients, based on the software interpretation of the AR177 plasma concentration versus time plot (FIGS. 56-59). For this reason, only one half-life is reported.

[3] = molecular target: recombinant HIV-1 integrase (wild-type) (Human immunodeficiency virus type 1 group M subtype B, UniProt P12497); conditions: previously reported by Ojwang et al., cited from earlier work
HIV-1DV [4] = experiment: Analysis of HIV-1 RNA and DNA in single cycle assays, SUP T1; assay type: cell-based
HIV-1DV [5] = experiment: HIV-1 p24 production in SUP T1 cells; assay type: cell-based; conditions: Human immunodeficiency virus 1, 96 h; SUP T1, HIV-1DV, four days

## 5′-gtggtgggtgggtgggt-3′ (GTGGTGGGTGGGTGGGT; phosphorothioate termini, further chemistry not given here) [T30177]
[1]
  metabolites (n−1, n−2) in plasma: No metabolites
Vero
  CC50: > 100 µM
  TC25: >100 µM
  TC95: >100 µM
NIH3T3
  CC50: > 100 µM
  TC25: >100 µM
  TC95: >100 µM
[2]; 0.75 mg/kg
  initial volume of distribution: 0.16 ± 0.05 L/kg
  steady-state volume of distribution: 0.14 ± 0.05 L/kg
[2]; 3 mg/kg
  initial volume of distribution: 0.08 ± 0.00 L/kg
  steady-state volume of distribution: 0.05 ± 0.03 L/kg
HSV-2 (G); HSV-2 (G)
  IC50 virus-induced cytopathogenicity: >200 µg/mL
HSV-2 (G); HSV-2 (G) assay
  MCC minimum concentration altering normal cell morphology: 400 μg/mL

## 5′-gtggtgggtgggtgggt-3′ [T30177] (GTGGTGGGTGGGTGGGT; phosphorothioate termini, further chemistry not given here)
Sindbis virus; Sindbis virus
  IC50 virus-induced cytopathogenicity: >200 µg/mL
Sindbis virus; Sindbis virus assay
  MCC minimum concentration altering normal cell morphology: ≧200 μg/mL
[3]; read-out: IC50 3′-PROC
  IC50: 0.079 µM
[3]; read-out: IC50 STR · TRA
  IC50: 0.049 µM
2.5 mg/kg, Day 7
  Body Weights: 3.1 ± 0.6
2.5 mg/kg, Day 14
  Body Weights: 3.2 ± 0.6
2.5 mg/kg, Day 21
  Body Weights: 3.2 ± 0.6
2.5 mg/kg, Day 25
  Body Weights: 3.1 ± 0.6
2.5 mg/kg, Prestudy
  Body Weights: 3.1 ± 0.5
10 mg/kg, Day 7
  Body Weights: 3.2 ± 0.7
10 mg/kg, Day 14
  Body Weights: 3.3 ± 0.7
10 mg/kg, Day 21
  Body Weights: 3.3 ± 0.7
10 mg/kg, Day 25
  Body Weights: 3.2 ± 0.7
10 mg/kg, Prestudy
  Body Weights: 3.2 ± 0.7
40 mg/kg
  treatment-related clinical sign: discoloration around the eyes in three high-dose animals
40 mg/kg, Day 7
  Body Weights: 3.2 ± 0.6
40 mg/kg, Day 14
  Body Weights: 3.3 ± 0.6
40 mg/kg, Day 21
  Body Weights: 3.2 ± 0.6
40 mg/kg, Day 25
  Body Weights: 3.1 ± 0.6
40 mg/kg, Prestudy
  Body Weights: 3.2 ± 0.6
2.5, 10, 40 mg/kg every other day, 12 doses
  mortality: No animals died
12 doses
  body weight: no effects on body weight
Cynomolgus monkey, in vivo
  ECG recordings: No abnormalities

## Cc1cn([C@H]2C[C@H](N=[N+]=[N-])[C@@H](CO)O2)c(=O)[nH]c1=O [AZT, 3′-azido-3′-deoxythymidine]
HIV-1DV [4]; 36 hr post-infection
  viral DNA synthesis (PCR): marked decrease in viral DNA synthesis
HIV-1DV [4]; drug added at zero hours
  HIV-1 specific transcript (RT-PCR): viral mRNA was still being produced
HIV-1DV [5]
  IC50: 0.4 µM

— US6355785B1, “Guanosine-rich oligonucleotide integrase inhibitors” (Aronex Pharmaceuticals, Inc., priority 1993, dated 2002)
